{
  "source": "patent US20090054403A1",
  "about": "“Treatment of Post-Traumatic Stress Disorder” (priority 2007, published 2009)",
  "key": {"[1]": {"test_system": "sympathetically mediated pressor response", "assay": "Pressor response to pre-ganglionic nerve stimulation in pithed SHR", "assay_type": "in vivo, spontaneously hypertensive rats (SHR)", "method": "Hemodynamic study in SHR. Male SHR (15-16 week old) were used in the study. The animals were lightly anesthetized with ether and the left femoral artery and vein were catheterized for measurement of blood pressure and drug administration, respectively. The animals were placed in restrainers and allowed to recover for 30-40 min. […] The animals were then anesthetized with pentobarbital, placed on a heating pad (37° C.) and ventilated with a Harvard rodent ventilator. After administration of atropine (1 mg/kg, iv) and tubocurarine (1 mg/kg, iv), the animals were pithed through the orbit of the eye with a stainless steel rod. The […] rod was stimulated electrically with 1 ms pulses of 80V at different frequencies (0.15, 0.45, 1.5, 5, 15 Hz) to obtain frequency-pressor response curves."}, "[2]": {"test_system": "heart rate, systolic blood pressure", "assay": "Heart rate and tail cuff systolic blood pressure, 21 days daily treatment", "assay_type": "in vivo, SHR", "settings": "1 and 10 mg/kg p.o. for 21 days"}, "[3]": {"test_system": "tissue norepinephrine and dopamine levels", "assay": "Tissue catecholamines in beagle dogs, 10, 30, 60 mg/kg/day for 4.5 days", "assay_type": "in vivo", "method": "This study was performed to determine the dopamine and norepinephrine concentrations in kidney medulla and kidney cortex from dogs dosed with nepicastat. Adult male beagle dogs were randomly assigned to four groups of 8 dogs per group and dosed by oral administration with nepicastat. Nepicastat was delivered in doses of 5, 15 and 30 mg/kg placed in single capsules. Vehicle was an empty capsule. Each dog received 2 doses daily, morning and afternoon (8-10 hours apart) for four days. On the fifth day, each dog received a single dose in the morning and the dogs were euthanized six hours after the last dose. Samples of kidney medulla and kidney cortex were rapidly harvested, weighed, placed in cold 0.4 M perchloric acid, frozen in liquid nitrogen and stored at −70° C.\nTo quantitate concentrations of norepinephrine (NE) and dopamine (D), each tissue was homogenized by brief sonication in 0.4 M perchloric acid. After sonication, the homogenates were centrifuged at 13,000 rpm in a microfuge for 30 minutes at 4° C. An aliquot of each supernatant was removed and spiked with 3,4-dihydroxybenzylamine (DHBA) as internal standard. The extract from each sample was subjected to HPLC separation using electrochemical detection. The method has a quantitation limit of 2.0 ng/mL and a linear range of 2.0 ng/mL to 400 ng/mL for each analyte.\nNepicastat was weighed and put into capsules (size 13—Torpac; East Hanover, N.J.) to yield doses of 5, 15, and 30 mg/kg per capsule (given b.i.d. to yield doses of 10, 30 and 60 mg/kg/day). The initial dog weight was used to determine the dose for each animal. Dogs receiving 0 mg/kg/day received empty capsules (placebo). All doses of nepicastat were administered as free base equivalents.\nThirty-two male beagle dogs, weighing 10-12 kg, were randomly assigned to one of the following 4 treatment groups (n=8 per group): nepicastat at 0 mg/kg/day (placebo), 10 mg/kg/day (5 mg/kg b.i.d.), 30 mg/kg (15 mg/kg b.i.d.), or 60 mg/kg/day (30 mg/kg b.i.d.). Dog numbers 1-16 were assigned as dose group A and dog numbers 17-32 as dose group B. The terminal surgery for tissue harvest was performed over 2 days with 16 animals studied per day. Two or 3 days before the first compound administration each dog was weighed and skin regions overlying both cephalic, saphenous and jugular veins were shaved. Dosing consisted of oral administration of one capsule with the second given 8-10 hr later. Dogs were dosed as scheduled on days 1-3. On day 4, prior to the AM dose, 3 ml of blood were obtained from a jugular vein for determination of baseline plasma compound levels. The dog was then administered the AM dose, and at 1, 2, 4 and 8 hr following the dose additional 3 ml blood samples were collected for determination of plasma compound levels. Blood samples were put into tubes containing heparin, centrifuged at 4° C. and stored at −20° C. until analysis. The PM dose was then administered as scheduled. The AM dose was administered as scheduled on the days of surgery. Approximately 6 hr after the AM dose, a final 3 ml blood sample was taken from the jugular vein for determination of plasma compound levels. The dog was then anesthetized with pentobarbital Na (˜40 mg/kg), given iv in a cephalic or saphenous vein, and delivered to the necropsy room where an additional dose of pentobarbital Na was given (˜80 mg/kg, iv). The left ventricle, renal artery, kidney, renal medulla, renal cortex and cerebral cortex were then rapidly harvested, weighed, put into 2 ml iced 0.4M perchloric acid, frozen in liquid nitrogen and stored at −70° C. until analysis for catecholamines by HPLC using electrochemical detection. All tissue samples were divided into 2 portions, the second of which were immediately frozen in liquid nitrogen and stored at −70° C. for determination of tissue compound levels. A third transmural sample taken from the left ventricle was immediately frozen in liquid nitrogen and stored at −70° C. for use in receptor binding studies. […]"}, "alpha1 receptors": {"target": "alpha1 receptors", "assay": "Radioligand filtration binding (Example 19)", "method": "(§1) The affinity of nepicastat was determined in the bindings assays outlined in FIG. 97. Standard radioligand filtration binding methods were used. Competition binding data were analyzed by iterative curve fitting to a four parameter logistic equation. Hill coefficients and IC50 were obtained directly. pKi (−log of Ki) of competing ligands were calculated from IC50 values using the Cheng-Prusoff equation."}, "[4]": {"target": "all other receptors examined", "assay": "Radioligand filtration binding (Example 19)", "method": "as §1"}, "mice": {"test_system": "mice", "assay": "Acute toxicity study, single oral doses", "assay_type": "in vivo", "settings": "single oral doses of 250, 1000, or 2500 mg/kg", "method": "Dose selection was based on an acute toxicity study in which mice were administered single oral doses of 250, 1000, or 2500 mg/kg of Nepicastat."}, "[5]": {"settings": "60 mg/kg/day, marginal (0.05<p<0.10)"}},
  "data": [
    {"smiles": "Cl.NCc1c[nH]c(=S)n1[C@H]1CCc2c(F)cc(F)cc2C1", "note": "[nepicastat, (S)-5-Aminomethyl-1-(5,7-difluoro-1,2,3,4-tetrahydronaphth-2-yl)-2,3-dihydro-2-thioxo-1H-imidazole hydrochloride]", "values": [
      {"measurement": "responses to preganglionic nerve stimulation", "setting": "[1]; 3 mg/kg p.o., 5 hours after dosing", "result": "significantly attenuated the hypertensive and tachycardic responses"},
      {"measurement": "maximum shift of the frequency-pressor response curve", "setting": "[1]; 5 h after oral dosing", "result": 5, "unit": "fold"},
      {"measurement": "heart rate and systolic blood pressure (tail cuff)", "setting": "[2]", "result": "did not alter heart rate, or systolic blood pressure"},
      {"measurement": "decrease in norepinephrine, left ventricle", "setting": "[3]; 10 mg/kg/day", "result": 85, "unit": "%"},
      {"measurement": "decrease in norepinephrine, renal artery", "setting": "[3]; 10 mg/kg/day", "result": 86, "unit": "%"},
      {"measurement": "decrease in norepinephrine, renal cortex", "setting": "[3]; 10 mg/kg/day", "result": 86, "unit": "%"},
      {"measurement": "decrease in norepinephrine, renal medulla", "setting": "[3]; 10 mg/kg/day", "result": 72, "unit": "%"},
      {"measurement": "increase in dopamine, cerebral cortex", "setting": "[3]; 10 mg/kg/day", "result": 632, "unit": "%"},
      {"measurement": "increase in dopamine, renal artery", "setting": "[3]; 10 mg/kg/day", "result": 180, "unit": "%"},
      {"measurement": "increase in dopamine, renal cortex", "setting": "[3]; 10 mg/kg/day", "result": 156, "unit": "%"},
      {"measurement": "increase in dopamine/norepinephrine ratio, cerebral cortex", "setting": "[3]; 10 mg/kg/day", "result": 531, "unit": "%"},
      {"measurement": "increase in dopamine/norepinephrine ratio, left ventricle", "setting": "[3]; 10 mg/kg/day", "result": 852, "unit": "%"},
      {"measurement": "increase in dopamine/norepinephrine ratio, renal artery", "setting": "[3]; 10 mg/kg/day", "result": 1711, "unit": "%"},
      {"measurement": "increase in dopamine/norepinephrine ratio, renal cortex", "setting": "[3]; 10 mg/kg/day", "result": 1653, "unit": "%"},
      {"measurement": "increase in dopamine/norepinephrine ratio, renal medulla", "setting": "[3]; 10 mg/kg/day", "result": 555, "unit": "%"},
      {"measurement": "increase in dopamine, renal medulla", "setting": "[3]; 10 mg/kg/day, marginal (0.05<p<0.10)", "result": 150, "unit": "%"},
      {"measurement": "decrease in norepinephrine, left ventricle", "setting": "[3]; 30 mg/kg/day", "result": 58, "unit": "%"},
      {"measurement": "decrease in norepinephrine, renal artery", "setting": "[3]; 30 mg/kg/day", "result": 81, "unit": "%"},
      {"measurement": "decrease in norepinephrine, renal cortex", "setting": "[3]; 30 mg/kg/day", "result": 66, "unit": "%"},
      {"measurement": "increase in dopamine, renal artery", "setting": "[3]; 30 mg/kg/day", "result": 273, "unit": "%"},
      {"measurement": "increase in dopamine, renal cortex", "setting": "[3]; 30 mg/kg/day", "result": 502, "unit": "%"},
      {"measurement": "increase in dopamine, renal medulla", "setting": "[3]; 30 mg/kg/day", "result": 522, "unit": "%"},
      {"measurement": "increase in dopamine/norepinephrine ratio, cerebral cortex", "setting": "[3]; 30 mg/kg/day", "result": 86, "unit": "%"},
      {"measurement": "increase in dopamine/norepinephrine ratio, left ventricle", "setting": "[3]; 30 mg/kg/day", "result": 279, "unit": "%"},
      {"measurement": "increase in dopamine/norepinephrine ratio, renal artery", "setting": "[3]; 30 mg/kg/day", "result": 1767, "unit": "%"},
      {"measurement": "increase in dopamine/norepinephrine ratio, renal cortex", "setting": "[3]; 30 mg/kg/day", "result": 1440, "unit": "%"},
      {"measurement": "increase in dopamine/norepinephrine ratio, renal medulla", "setting": "[3]; 30 mg/kg/day", "result": 636, "unit": "%"},
      {"measurement": "reduction in norepinephrine, cerebral cortex", "setting": "[3]; 30 mg/kg/day", "result": 63, "unit": "%"},
      {"measurement": "increase in dopamine, cerebral cortex", "setting": "[3]; 30 mg/kg/day, marginal (0.05<p<0.10)", "result": 174, "unit": "%"},
      {"measurement": "decrease in norepinephrine, left ventricle", "setting": "[3]; 60 mg/kg/day", "result": 79, "unit": "%"},
      {"measurement": "decrease in norepinephrine, renal artery", "setting": "[3]; 60 mg/kg/day", "result": 85, "unit": "%"},
      {"measurement": "decrease in norepinephrine, renal cortex", "setting": "[3]; 60 mg/kg/day", "result": 85, "unit": "%"},
      {"measurement": "increase in dopamine, cerebral cortex", "setting": "[3]; 60 mg/kg/day", "result": 411, "unit": "%"},
      {"measurement": "increase in dopamine, renal artery", "setting": "[3]; 60 mg/kg/day", "result": 268, "unit": "%"},
      {"measurement": "increase in dopamine, renal cortex", "setting": "[3]; 60 mg/kg/day", "result": 208, "unit": "%"},
      {"measurement": "increase in dopamine/norepinephrine ratio, cerebral cortex", "setting": "[3]; 60 mg/kg/day", "result": 612, "unit": "%"},
      {"measurement": "increase in dopamine/norepinephrine ratio, left ventricle", "setting": "[3]; 60 mg/kg/day", "result": 607, "unit": "%"},
      {"measurement": "increase in dopamine/norepinephrine ratio, renal artery", "setting": "[3]; 60 mg/kg/day", "result": 1944, "unit": "%"},
      {"measurement": "increase in dopamine/norepinephrine ratio, renal cortex", "setting": "[3]; 60 mg/kg/day", "result": 1693, "unit": "%"},
      {"measurement": "increase in dopamine/norepinephrine ratio, renal medulla", "setting": "[3]; 60 mg/kg/day", "result": 677, "unit": "%"},
      {"measurement": "decrease in norepinephrine, renal medulla", "setting": "[3]; [5]", "result": 69, "unit": "%"},
      {"measurement": "increase in dopamine, renal medulla", "setting": "[3]; [5]", "result": 156, "unit": "%"},
      {"measurement": "dopamine levels, left ventricle", "setting": "[3]; 10, 30 and 60 mg/kg/day", "result": "No significant changes"},
      {"measurement": "norepinephrine levels, cerebral cortex", "setting": "[3]; 10 and 60 mg/kg/day", "result": "not significantly (p>0.01) affected"},
      {"measurement": "pKi", "setting": "alpha1 receptors", "result": "6.9-6.7"},
      {"measurement": "pKi", "setting": "[4]", "result": "< 6.2"},
      {"measurement": "acute toxicity", "setting": "mice", "result": "Clinical signs of toxicity and death occurred at 1000 and 2500 mg/kg"}
    ]}
  ]
}
